Data as given in patent US6552080B1, “Fungicidal compounds having a fluorovinyl-or fluoropropenyl-oxyphenyloxime moiety and process for the preparation thereof” (Korea Research Institute of Chemical Technology, priority 1999, dated 2003).
Read-outs that look alike come from different tables or passages of the source.

Legend:
[1] = tested on: Pyricularia oryzae Carvara KA301; type: in vivo; settings: for RCV (Fungicidal Activities, C.V.): Rice Blast
[2] = tested on: Botrytis cinerae; assay: Fungicidal activity against Cucumber Gray Mold Rot (CGM) disease; type: in vivo; settings: for CGM (Fungicidal Activities, C.V.): Cucumber Gray Mold Rot, concentration 50 ppm; for Fungicidal Activities CGM (C.V.): 50 ppm
[3] = tested on: Phytophthora infestans; type: in vivo; settings: for TLB (Fungicidal Activities, C.V.): Tomato Late Blight
[4] = tested on: Puccinia recondita; assay: Fungicidal activity against Wheat Leaf Rust (WLR) disease; type: in vivo; settings: for WLR (Fungicidal Activities, C.V.): Wheat Leaf Rust
[5] = tested on: Erysiphae graminis; assay: Fungicidal activity against Barley Powdery Mildew (BPM) disease; type: in vivo; settings: for BPM (Fungicidal Activities, C.V.): Barley Powdery Mildew
[6] = tested on: Rhizoctonia solani AG-1; assay: Fungicidal activity against Rice Sheath Blight (RSB) disease; settings: for RSB (Fungicidal Activities, C.V.): Rice Sheath Blight

SMILES	RCV (Fungicidal Activities, C.V.) ([1]; concentration 2 ppm) [%]	RCV (Fungicidal Activities, C.V.) ([1]; concentration 50 ppm) [%]	CGM (Fungicidal Activities, C.V.) [2] [%]	TLB (Fungicidal Activities, C.V.) ([3]; concentration 50 ppm) [%]	WLR (Fungicidal Activities, C.V.) ([4]; concentration 2 ppm) [%]	WLR (Fungicidal Activities, C.V.) ([4]; concentration 50 ppm) [%]	BPM (Fungicidal Activities, C.V.) ([5]; concentration 2 ppm) [%]	BPM (Fungicidal Activities, C.V.) ([5]; concentration 50 ppm) [%]	RSB (Fungicidal Activities, C.V.) ([6]; concentration 50 ppm) [%]	RCV (Fungicidal Activities, C.V.) ([1]; concentration 10 ppm) [%]	WLR (Fungicidal Activities, C.V.) ([4]; concentration 10 ppm) [%]	BPM (Fungicidal Activities, C.V.) ([5]; concentration 10 ppm) [%]	also measured
CON=C(C(=O)OC)c1ccccc1CON=C(C)c1cccc(OC(F)=Cc2ccc(Cl)cc2)c1 [Compound 76]	100	100	62	0	100	100	100	100	100	–	–	–	TLB (Fungicidal Activities, C.V.) ([3]; concentration 2 ppm): 0%; RSB (Fungicidal Activities, C.V.) ([6]; concentration 2 ppm): 35%
COC=C(C(=O)OC)c1ccccc1CON=Cc1cccc(OC(F)=Cc2cccc(Cl)c2)c1 [Compound 13]	41	93	36	46	99	100	99	100	70	86	100	100	–
COC=C(C(=O)OC)c1ccccc1CON=C(C)c1cccc(OC(F)=C(c2ccccc2)C(F)(F)F)c1 [Compound 150]	83	100	44	50	95	100	100	100	92	100	100	100	RSB (Fungicidal Activities, C.V.) ([6]; concentration 2 ppm): 55%; RSB (Fungicidal Activities, C.V.) ([6]; concentration 10 ppm): 65%
CO/C=C(/C(=O)OC)c1ccccc1CON=Cc1cccc(OC(F)=Cc2ccccc2)c1 [Compound 1]	71	100	69	12	96	100	99	100	65	86	100	100	–
CNC(=O)C(=COC)c1ccccc1CON=C(C)c1cccc(OC(F)=Cc2ccc(OC)cc2)c1 [Compound 60]	–	100	8	0	–	66	–	100	29	–	–	–	–
CNC(=O)C(=NOC)c1ccccc1CON=Cc1cccc(OC(F)=Cc2ccc3c(c2)OCO3)c1 [Compound 39]	93	100	0	83	0	100	0	100	58	–	–	–	–
CNC(=O)C(=NOC)c1ccccc1CON=C(C)c1cccc(OC(F)=C(c2ccccc2)C(F)(F)F)c1 [Compound 191]	–	–	–	–	–	–	–	–	–	–	–	–	Fungicidal Activities RCV (C.V.) ([1]; 2 ppm): 100%; Fungicidal Activities RCV (C.V.) ([1]; 50 ppm): 100%; Fungicidal Activities CGM (C.V.) [2]: 68%; Fungicidal Activities TLB (C.V.) ([3]; 2 ppm): 0%; Fungicidal Activities TLB (C.V.) ([3]; 50 ppm): 60%; Fungicidal Activities WLR (C.V.) ([4]; 2 ppm): 99%; Fungicidal Activities WLR (C.V.) ([4]; 50 ppm): 100%; Fungicidal Activities BPM (C.V.) ([5]; 2 ppm): 100%; Fungicidal Activities BPM (C.V.) ([5]; 50 ppm): 100%; Fungicidal Activities RSB (C.V.) ([6]; 2 ppm): 35%; Fungicidal Activities RSB (C.V.) ([6]; 50 ppm): 75%
CON=C(C(=O)OC)c1ccccc1CON=C(C)c1cccc(OC(F)=C(c2cccc(F)c2)C(F)(F)F)c1 [Compound 182]	–	–	–	–	–	–	–	–	–	–	–	–	Fungicidal Activities RCV (C.V.) ([1]; 2 ppm): 95%; Fungicidal Activities RCV (C.V.) ([1]; 50 ppm): 95%; Fungicidal Activities CGM (C.V.) [2]: 77%; Fungicidal Activities TLB (C.V.) ([3]; 2 ppm): 62%; Fungicidal Activities TLB (C.V.) ([3]; 50 ppm): 40%; Fungicidal Activities WLR (C.V.) ([4]; 2 ppm): 95%; Fungicidal Activities WLR (C.V.) ([4]; 50 ppm): 100%; Fungicidal Activities BPM (C.V.) ([5]; 2 ppm): 96%; Fungicidal Activities BPM (C.V.) ([5]; 50 ppm): 100%; Fungicidal Activities RSB (C.V.) ([6]; 2 ppm): 30%; Fungicidal Activities RSB (C.V.) ([6]; 50 ppm): 50%
COC=C(C(=O)OC)c1ccccc1CON=C(C)c1cccc(OC(F)=C(c2ccc(Br)cc2)C(F)(F)F)c1 [Compound 165]	–	–	–	–	–	–	–	–	–	–	–	–	Fungicidal Activities RCV (C.V.) ([1]; 50 ppm): 80%; Fungicidal Activities CGM (C.V.) [2]: 68%; Fungicidal Activities TLB (C.V.) ([3]; 50 ppm): 6%; Fungicidal Activities WLR (C.V.) ([4]; 2 ppm): 86%; Fungicidal Activities WLR (C.V.) ([4]; 10 ppm): 96%; Fungicidal Activities WLR (C.V.) ([4]; 50 ppm): 100%; Fungicidal Activities BPM (C.V.) ([5]; 2 ppm): 71%; Fungicidal Activities BPM (C.V.) ([5]; 10 ppm): 99%; Fungicidal Activities BPM (C.V.) ([5]; 50 ppm): 100%; Fungicidal Activities RSB (C.V.) ([6]; 50 ppm): 45%
CNC(=O)C(=NOC)c1ccccc1CON=C(C)c1cccc(OC(F)=Cc2cccc(OC)c2)c1 [Compound 80]	100	100	77	72	96	100	100	100	100	–	–	–	TLB (Fungicidal Activities, C.V.) ([3]; concentration 2 ppm): 12%; RSB (Fungicidal Activities, C.V.) ([6]; concentration 2 ppm): 45%
COC=C(C(=O)OC)c1ccccc1CON=C(C)c1cccc(OC(F)=C(c2cc(Cl)cc(Cl)c2)C(F)(F)F)c1 [Compound 164]	–	–	–	–	–	–	–	–	–	–	–	–	Fungicidal Activities RCV (C.V.) ([1]; 50 ppm): 41%; Fungicidal Activities CGM (C.V.) [2]: 36%; Fungicidal Activities TLB (C.V.) ([3]; 50 ppm): 0%; Fungicidal Activities WLR (C.V.) ([4]; 2 ppm): 60%; Fungicidal Activities WLR (C.V.) ([4]; 10 ppm): 95%; Fungicidal Activities WLR (C.V.) ([4]; 50 ppm): 96%; Fungicidal Activities BPM (C.V.) ([5]; 2 ppm): 71%; Fungicidal Activities BPM (C.V.) ([5]; 10 ppm): 99%; Fungicidal Activities BPM (C.V.) ([5]; 50 ppm): 100%; Fungicidal Activities RSB (C.V.) ([6]; 50 ppm): 20%
CCc1ccc(C=C(F)Oc2cccc(C(C)=NOCc3ccccc3C(=COC)C(=O)NC)c2)cc1 [Compound 59]	–	100	0	0	–	73	–	91	47	–	–	–	–
COC=C(C(=O)OC)c1ccccc1CON=Cc1cccc(OC(F)=Cc2ccc(OC)cc2)c1 [Compound 9]	8	100	53	12	95	100	55	100	50	83	98	99	–
COC=C(C(=O)OC)c1ccccc1CON=C(C)c1cccc(OC(F)=Cc2ccc(Cl)c(C)c2)c1 [Compound 52]	–	97	52	42	–	100	–	100	65	80	96	100	–
